One assay concerns SF-295. In words: Growth inhibition of human SF-295 cells. Type of assay: functional.
As usually defined, the GI50 is the concentration at which growth is held to half of that of the control. The low end stands for more potent growth inhibition, the high end for less potent growth inhibition. `COc1cc(-n2cc(-c3cc(O)c(C/C=C(\C)CCC=C(C)C)c(O)c3)nn2)cc2c1O[C@]1(C)CC[C@@H](O)C(C)(C)[C@H]1C2` registered a GI50 of 35 nM.

As for `COc1cc(CCc2cc(O)c(C/C=C(\C)CC/C=C(\C)CO)c(O)c2)cc2c1O[C@]1(C)CC[C@@H](O)C(C)(C)[C@H]1C2`, the 50% growth inhibitory concentration (GI50) came out at 2500 nM.

For `COc1cc(/C=C/c2cc(O)c(C/C=C(\C)CCC=C(C)C)c(O)c2)cc2c1O[C@]1(C)CC[C@@H](O)C(C)(C)[C@H]1C2` [3-DEOXYSCHWEINFURTHIN B], the GI50 was found to be 62 nM.

Regarding `CC(C)=CCC/C(C)=C/Cc1c(O)cc(/C=C/c2cc(O)c3c(c2)C[C@@H]2C(C)(C)[C@H](O)[C@H](O)C[C@@]2(C)O3)cc1O` [SCHWEINFURTHIN A], the GI50 came out at 11 nM.

The next assay concerns Panel NCI-60 (60 carcinoma cell lines). In words: Growth inhibition of human Panel NCI-60 cells. Type of assay: functional.
Molecule `COc1cc(-n2cc(-c3cc(O)c(C/C=C(\C)CCC=C(C)C)c(O)c3)nn2)cc2c1O[C@]1(C)CC[C@@H](O)C(C)(C)[C@H]1C2` yielded a GI50 of 710 nM.

Turning to `COc1cc(CCc2cc(O)c(C/C=C(\C)CC/C=C(\C)CO)c(O)c2)cc2c1O[C@]1(C)CC[C@@H](O)C(C)(C)[C@H]1C2`, the GI50 came out at 4900 nM.

On to `COc1cc(/C=C/c2cc(O)c(C/C=C(\C)CCC=C(C)C)c(O)c2)cc2c1O[C@]1(C)CC[C@@H](O)C(C)(C)[C@H]1C2` [3-DEOXYSCHWEINFURTHIN B], for which the 50% growth inhibitory concentration (GI50) was 620 nM.

`CC(C)=CCC/C(C)=C/Cc1c(O)cc(/C=C/c2cc(O)c3c(c2)C[C@@H]2C(C)(C)[C@H](O)[C@H](O)C[C@@]2(C)O3)cc1O` [SCHWEINFURTHIN A] displayed a GI50 of 360 nM.

The values above are taken from ChEMBL document CHEMBL5236570, “Substitution of a triazole for the central olefin in biologically active stilbenes” (2022).
